In patent US20250340563A1, “FUSED PYRIDAZINE DERIVATIVES AS NLRP3 INHIBITORS” (Takeda Pharmaceutical Company Limited, priority 2022, published 2025):
pIC50: −log10 of the molar value.

Tests used:
NLRP3 inflammasome = NLRP3 inflammasome (Homo sapiens, UniProt Q96P20); assay: IL-1β assay in IFN-γ-differentiated, LPS-primed, ATP-activated THP-1 cells (ELISA); format: cell-based; settings: 50 ng/mL LPS priming, 2.5 mM ATP activation, 2 hours
Method in brief: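 THP-1 cells differentiated with 25 ng/mL IFN-γ for 24 h, then primed with 50 ng/mL LPS for 24 h in serum-free medium. After 30 min compound preincubation (1:3.16 dilution series), inflammasome activated with 2.5 mM ATP for 2 h at 37 °C. Supernatant IL-1β measured by ELISA; IC50 from logistic fit of % inhibition.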

NF-κB pathway = assay: TNF-α assay in IFN-γ-differentiated, LPS-stimulated THP-1 cells (ELISA); format: cell-based; settings: Homo sapiens, 50 ng/mL LPS, 3 hours
Method: Monocytic THP-1 cells (ATCC: TIB-202) are maintained in accordance with the provider's instructions in RPMI media (Life Technologies, Cat #A10491-01); RPMI is supplemented with 10% heat inactivated fetal bovine serum (Hyclone Cat #SH30396.03). The cells are differentiated into macrophages by the addition of 25 ng/mL IFN-γ for 24 hours at 37° C./5% CO2. Media is exchanged with fresh media with no FBS. The cells are plated at 40,000 cells per well in 384-well flat-bottom cell culture plates (Costar 3764) containing compounds (added in 1:1000) in a 1:3.16 serial dilution series in DMSO and are incubated for 30 minutes at 37° C./5% CO2. The NF-κB pathway is activated with the addition of 50 ng/mL LPS and the cells are incubated for 3 hours at 37° C./5% CO2. At the end of the incubation period, supernatant (40 μL) is removed, and […] are monitored using an ELISA (Human TNF-α ELISA, R&D systems, Cat #DY210) according to the manufacturer's instructions.
The IC50 values are calculated from a plot of percentage of inhibition versus the inhibitor concentration by a logistics curve fit according to: Y=[Bottom+(Top−Bottom)]/(1+10^[(Log IC50−X)·Hill Slope], where Y is the % inhibition at the inhibitor concentration, X, “Bottom” is the lowest inhibition value, i.e. 0%, “Top” is the maximum inhibition value, i.e. 100%, and the “Hill Slope” describes the slope of the sigmoidal curve between the “Bottom” and “Top” values. The curve fitting was conducted with internally developed software.

Chain of NLRP3 inflammasome (Q96P20 whole entry): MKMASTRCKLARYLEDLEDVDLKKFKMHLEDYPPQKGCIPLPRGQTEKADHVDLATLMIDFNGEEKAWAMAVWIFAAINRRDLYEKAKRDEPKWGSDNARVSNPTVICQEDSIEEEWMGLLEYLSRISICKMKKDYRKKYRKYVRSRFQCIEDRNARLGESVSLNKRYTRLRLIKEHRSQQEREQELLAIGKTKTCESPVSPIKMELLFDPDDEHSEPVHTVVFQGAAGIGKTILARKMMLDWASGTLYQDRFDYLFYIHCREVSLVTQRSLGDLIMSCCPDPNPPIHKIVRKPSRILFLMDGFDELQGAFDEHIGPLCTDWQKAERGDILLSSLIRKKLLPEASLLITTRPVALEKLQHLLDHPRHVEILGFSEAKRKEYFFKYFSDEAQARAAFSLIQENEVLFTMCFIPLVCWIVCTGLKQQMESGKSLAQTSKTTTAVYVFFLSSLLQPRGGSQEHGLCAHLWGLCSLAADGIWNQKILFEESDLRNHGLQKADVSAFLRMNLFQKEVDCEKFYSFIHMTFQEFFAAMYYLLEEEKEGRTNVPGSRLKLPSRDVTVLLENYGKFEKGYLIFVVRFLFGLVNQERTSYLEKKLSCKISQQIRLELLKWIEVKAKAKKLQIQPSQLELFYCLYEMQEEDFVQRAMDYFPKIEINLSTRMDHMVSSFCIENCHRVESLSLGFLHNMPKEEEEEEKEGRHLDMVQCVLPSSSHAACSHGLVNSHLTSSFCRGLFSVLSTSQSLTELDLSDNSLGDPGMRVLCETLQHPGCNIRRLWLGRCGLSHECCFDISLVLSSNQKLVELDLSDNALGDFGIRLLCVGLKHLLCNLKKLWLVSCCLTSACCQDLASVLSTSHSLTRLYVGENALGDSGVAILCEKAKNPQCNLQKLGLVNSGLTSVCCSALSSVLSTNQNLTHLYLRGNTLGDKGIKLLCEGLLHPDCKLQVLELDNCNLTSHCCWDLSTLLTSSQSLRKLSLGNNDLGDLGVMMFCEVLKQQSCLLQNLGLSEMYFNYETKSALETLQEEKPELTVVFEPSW

pIC50 (NLRP3 inflammasome)	pIC50 (NF-κB pathway)	SMILES
5.79	< 4.52	COc1ccc(-c2nnc(Nc3ccccc3O)c3ccccc23)cc1 [Example 39, 2-((4-(4-methoxyphenyl)phthalazin-1-yl)amino)phenol]
8.30	4.59	Oc1cc(Cl)ccc1-c1nnc(NC23CCC(O)(CC2)C3)c2cnccc12 [Example 96, 4-((1-(4-chloro-2-hydroxyphenyl)pyrido[3,4-d]pyridazin-4-yl)amino)bicyclo[2.2.1]heptan-1-ol]
8.70	< 4.52	Oc1cc(Cl)ccc1-c1nnc(N[C@@H]2CCCN(CCF)C2)c2ccccc12 [Example 59, (R)-5-chloro-2-(4-((1-(2-fluoroethyl)piperidin-3-yl)amino)phthalazin-1-yl)phenol]
7.01	< 4.52	Cc1ccc(-c2nnc(N[C@@H]3CCCN(C)C3)c3cnccc23)cc1 [Example 30, (R)—N-(1-methylpiperidin-3-yl)-1-(p-tolyl)pyrido[3,4-d]pyridazin-4-amine]
8.70	< 4.52	CN1CCC[C@@H](Nc2nnc(-c3ccc(Cl)cc3O)c3c2CCOC3)C1 [Example 224, (R)-5-chloro-2-(1-((1-methylpiperidin-3-yl)amino)-7,8-dihydro-5H-pyrano[3,4-d]pyridazin-4-yl)phenol]
7.19	< 4.52	CN1C[C@H](F)C[C@@H](Nc2nnc(-c3ccc(OC(F)(F)F)cc3F)c3c2COCC3)C1 [Example 205, N-((3R,5R)-5-fluoro-1-methylpiperidin-3-yl)-1-(2-fluoro-4-(trifluoromethoxy)phenyl)-7,8-dihydro-5H-pyrano[3,4-d]pyridazin-4-amine]
7.39	< 4.52	CN1CCCC(Nc2nnc(-c3ccc(Cl)cc3F)c3ccccc23)C1 (stereo not drawn) [Example 43, 4-(4-chloro-2-fluorophenyl)-N-(1-methylpiperidin-3-yl)phthalazin-1-amine]
7.22	< 4.52	CN1C[C@H](F)C[C@@H](Nc2nnc(-c3ccc(Cl)cc3)c3ccccc23)C1 [Example 192, 4-(4-chlorophenyl)-N-((3R,5R)-5-fluoro-1-methylpiperidin-3-yl)phthalazin-1-amine]
6.48	< 4.52	C[C@]1(O)C[C@@H](Nc2nnc(-c3ccc(Cl)cc3)c3ccccc23)C1 [Example 118, cis-3-((4-(4-chlorophenyl)phthalazin-1-yl)amino)-1-methylcyclobutan-1-ol]
6.80	< 4.52	COc1ccc(-c2nnc(N[C@@H]3C[C@@H](F)CN(C)C3)c3c2CCOC3)c(F)c1 [Example 215, N-((3R,5R)-5-fluoro-1-methylpiperidin-3-yl)-1-(2-fluoro-4-methoxyphenyl)-7,8-dihydro-5H-pyrano[3,4-d]pyridazin-4-amine]
6.26	< 4.52	CN1CCC[C@@H](Nc2nnc(-c3ccc(Cl)cc3)c3cnccc23)C1 [Example 67, (R)-4-(4-chlorophenyl)-N-(1-methylpiperidin-3-yl)pyrido[3,4-d]pyridazin-1-amine]
8.10	< 4.52	Clc1ccc(-c2nnc(NC3CCCN(C4CC4)C3)c3cnccc23)cc1 (stereo not drawn) [Example 88, 1-(4-chlorophenyl)-N-(1-cyclopropylpiperidin-3-yl)pyrido[3,4-d]pyridazin-4-amine]
5.73	5.14	COc1ccc(-c2nnc(Nc3cccc(O)c3)c3ccccc23)cc1 [Example 1, 3-((4-(4-methoxyphenyl)phthalazin-1-yl)amino)phenol]
6.07	< 4.52	COc1ccc(-c2nnc(N[C@@H]3C[C@@H](F)CN(C)C3)c3c2COCC3)c(C(F)F)c1 [Example 208, 4-(2-(difluoromethyl)-4-methoxyphenyl)-N-((3R,5R)-5-fluoro-1-methylpiperidin-3-yl)-7,8-dihydro-5H-pyrano[3,4-d]pyridazin-1-amine]
7.34	< 4.52	CN1CCCC(Nc2nnc(-c3ccc(Cl)cc3F)c3ccncc23)C1 (stereo not drawn) [Example 68, 1-(4-chloro-2-fluorophenyl)-N-(1-methylpiperidin-3-yl)pyrido[3,4-d]pyridazin-4-amine]
